Consider eight compounds from patent US10179794B2, “Thieno[3,2-d]pyrimidine, furo[3,2-d]pyrimidine, and pyrrolo[3,2-D]pyrimidines useful for treating respiratory syncitial virus infections” (Gilead Sciences, Inc., priority 2014, dated 2019).

One series concerns RSV strain A2. The series is described as follows: Anti-RSV activity, infectious cytopathic cell protection assay in HEp-2 cells. The settings on record: human respiratory syncytial virus. It counts as cell-based, Respiratory Syncytial Virus (RSV). Here is the method:
Antiviral activity against RSV is determined using an infectious cytopathic cell protection assay in HEp-2 cells. In this assay, compounds inhibiting viral infection and/or replication produce a cytoprotective effect against the virus-induced cell killing that can be quantified using a cell viability reagent. The techniques used here are novel adaptations of methods described in published literature (Chapman et al., Antimicrob Agents Chemother. 2007, 51 (9):3346-53.)
HEp-2 cells are obtained from ATCC (Manassas, Va.) and maintained in MEM media supplemented with 10% fetal bovine serum and penicillin/streptomycin. Cells are passaged twice a week and kept at subconfluent stage. Commercial stock of RSV strain A2 (Advanced Biotechnologies, Columbia, Md.) is titered before compound testing to determine the appropriate dilution of the virus stock that generates desirable cytopathic effect in HEp-2 cells.
For antiviral tests, HEp-2 cells are grown in large cell culture flasks to near confluency but not fully so. The compounds to be tested are prediluted in DMSO in 384-well compound dilution plates, either in an 8 or 40 sample per plate standardized dose response format. 3-fold serial dilution increments of each test compound are prepared in the plates and test samples are transferred via acoustic transfer apparatus (Echo, Labcyte) at 100 nl per well into cell culture assay 384-well plates. Each compound dilution is transferred in single or quadruplicate samples into dry assay plates, which are stored until assay is ready to go. The positive and negative controls are laid out in opposite on ends of the plate in vertical blocks (1 column).
Subsequently, an infectious mixture is prepared using an appropriate dilution of virus stock previously determined by titration with cells at a density of 50,000/ml and 20 uL/well is added to test plates w/compounds via automation (uFlow, Biotek). Each plate includes negative and positive controls (16 replicates each) to create 0% and 100% virus inhibition standards, respectively. Following the infection with RSV, testing plates are incubated for 4 days in a 37° C. cell culture incubator. After the incubation, a cell viability reagent, Cell TiterGlo (Promega, Madison, Wis.) is added to the assay plates, which are incubated briefly, and a luminescent readout is measured (Envision, Perkin Elmer) in all the assay plates. The RSV-induced cytopathic effect, percentage inhibition, is determined from the levels of remaining cell viability. These numbers are calculated for each tested concentration relative to the 0% and 100% inhibition controls, and the EC50 value for each compound is determined by non-linear regression as a concentration inhibiting the RSV-induced cytopathic effect by 50%. Various potent anti-RSV tool compounds are used as positive controls for antiviral activity.
(Damage to the host cells serves as the signal in cytopathic effect assays.)

A short description of series [1]: Cytotoxicity assay in HEp-2 cells. In kind it is cell-based. To be noted: human, uninfected HEp-2 cells, CellTiter Glo. The protocol: Cytotoxicity of tested compounds is determined in uninfected HEp-2 cells in parallel with the antiviral activity using the cell viability reagent in a similar fashion as described before for other cell types (Cihlar et al., Antimicrob Agents Chemother. 2008,52(2):655-65.). The same protocol as for the determination of antiviral activity is used for the measurement of compound cytotoxicity except that the cells are not infected with RSV. Instead, an uninfected cell mixture at the same density is added at 20 ul/well to plates containing prediluted compounds, also at 100 nl/sample. Assay plates are then incubated for 4 days followed by a cell viability test using the same CellTiter Glo reagent addition and measurement of luminescent readouts. Untreated cell and cells treated at 2 uM puromycin (Sigma, St. Louis, Mo.) serve as 100% and 0% cell viability control, respectively. The percent of cell viability is calculated for each tested compound concentration relative to the 0% and 100% controls and the CC50 value is determined by non-linear regression as a compound concentration reducing the cell viability by 50%.

The nature of series [2]: Cytotoxicity assay in MT-4 cells. In kind it is cell-based. To be noted: human, Cell-Titer Glo. The protocol:
The MT-4 cell line was obtained from the NIH AIDS Research and Reference Reagent Program (Germantown, Md.) and cultured in RPMI-1640 medium (Irvine Scientific, Santa Ana, Calif., Cat #9160) supplemented with 10% FBS, 100 units/mL penicillin, 100 units/mL streptomycin, and 2 mM L-Glutamine. The MT-4 cells were passaged twice per week to maintain cell densities below 0.6×10^6 cells/mL. Complete RPMI-1640 media containing 100× concentrations of 3-fold serially diluted compound, ranging from 26 nM to 530 μM, were stamped in quadruplicate into black 384-well plates. After compound addition, 2×10^3 MT-4 cells were added to each well using a MicroFlo liquid dispenser (BioTek, Winooski, Vt.) and the cells were cultured for 5 days at 37° C. in a 5% CO2 incubator. Following the incubation the cells were allowed to equilibrate to 25° C. and cell viability was determined by adding 25 μL of Cell-Titer Glo viability reagent. The mixture was incubated for 10 minutes at 25° C., and the luminescence signal was quantified on a Victor Luminescence plate reader. The CC50 value is defined as the concentration of compound that reduces cell viability by 50% as determined by the Cell-Titer Glo signal. The data were analyzed using Pipeline Pilot Plate Data Analytics Collection software (Version 7.0, Accelrys, San Diego, Calif.). CC50 values were calculated from a non-linear regression analysis using a 4-parameter sigmoidal dose-response equation: Y=Bottom+(Top-Bottom)/(1+10^[(LogCC50-X)*HillSlope]) where the Top and Bottom were fixed at 100% and 0% cell viability, respectively. CC50 values were calculated as the average± standard deviation of 3 independent experiments.

In series [3] the target is T1, RSV ribonucleoprotein (RNP) complexes (Human respiratory syncytial virus A, UniProt P28887).
T1 construct: The supernatant (S3) fraction, containing the enriched RSV RNP complexes, was collected; endogenous in cells; host or cells: HEp-2 cells infected with RSV A2; detergent-extracted S3 fraction (crude RNP)
T1 sequence (P28887 whole entry): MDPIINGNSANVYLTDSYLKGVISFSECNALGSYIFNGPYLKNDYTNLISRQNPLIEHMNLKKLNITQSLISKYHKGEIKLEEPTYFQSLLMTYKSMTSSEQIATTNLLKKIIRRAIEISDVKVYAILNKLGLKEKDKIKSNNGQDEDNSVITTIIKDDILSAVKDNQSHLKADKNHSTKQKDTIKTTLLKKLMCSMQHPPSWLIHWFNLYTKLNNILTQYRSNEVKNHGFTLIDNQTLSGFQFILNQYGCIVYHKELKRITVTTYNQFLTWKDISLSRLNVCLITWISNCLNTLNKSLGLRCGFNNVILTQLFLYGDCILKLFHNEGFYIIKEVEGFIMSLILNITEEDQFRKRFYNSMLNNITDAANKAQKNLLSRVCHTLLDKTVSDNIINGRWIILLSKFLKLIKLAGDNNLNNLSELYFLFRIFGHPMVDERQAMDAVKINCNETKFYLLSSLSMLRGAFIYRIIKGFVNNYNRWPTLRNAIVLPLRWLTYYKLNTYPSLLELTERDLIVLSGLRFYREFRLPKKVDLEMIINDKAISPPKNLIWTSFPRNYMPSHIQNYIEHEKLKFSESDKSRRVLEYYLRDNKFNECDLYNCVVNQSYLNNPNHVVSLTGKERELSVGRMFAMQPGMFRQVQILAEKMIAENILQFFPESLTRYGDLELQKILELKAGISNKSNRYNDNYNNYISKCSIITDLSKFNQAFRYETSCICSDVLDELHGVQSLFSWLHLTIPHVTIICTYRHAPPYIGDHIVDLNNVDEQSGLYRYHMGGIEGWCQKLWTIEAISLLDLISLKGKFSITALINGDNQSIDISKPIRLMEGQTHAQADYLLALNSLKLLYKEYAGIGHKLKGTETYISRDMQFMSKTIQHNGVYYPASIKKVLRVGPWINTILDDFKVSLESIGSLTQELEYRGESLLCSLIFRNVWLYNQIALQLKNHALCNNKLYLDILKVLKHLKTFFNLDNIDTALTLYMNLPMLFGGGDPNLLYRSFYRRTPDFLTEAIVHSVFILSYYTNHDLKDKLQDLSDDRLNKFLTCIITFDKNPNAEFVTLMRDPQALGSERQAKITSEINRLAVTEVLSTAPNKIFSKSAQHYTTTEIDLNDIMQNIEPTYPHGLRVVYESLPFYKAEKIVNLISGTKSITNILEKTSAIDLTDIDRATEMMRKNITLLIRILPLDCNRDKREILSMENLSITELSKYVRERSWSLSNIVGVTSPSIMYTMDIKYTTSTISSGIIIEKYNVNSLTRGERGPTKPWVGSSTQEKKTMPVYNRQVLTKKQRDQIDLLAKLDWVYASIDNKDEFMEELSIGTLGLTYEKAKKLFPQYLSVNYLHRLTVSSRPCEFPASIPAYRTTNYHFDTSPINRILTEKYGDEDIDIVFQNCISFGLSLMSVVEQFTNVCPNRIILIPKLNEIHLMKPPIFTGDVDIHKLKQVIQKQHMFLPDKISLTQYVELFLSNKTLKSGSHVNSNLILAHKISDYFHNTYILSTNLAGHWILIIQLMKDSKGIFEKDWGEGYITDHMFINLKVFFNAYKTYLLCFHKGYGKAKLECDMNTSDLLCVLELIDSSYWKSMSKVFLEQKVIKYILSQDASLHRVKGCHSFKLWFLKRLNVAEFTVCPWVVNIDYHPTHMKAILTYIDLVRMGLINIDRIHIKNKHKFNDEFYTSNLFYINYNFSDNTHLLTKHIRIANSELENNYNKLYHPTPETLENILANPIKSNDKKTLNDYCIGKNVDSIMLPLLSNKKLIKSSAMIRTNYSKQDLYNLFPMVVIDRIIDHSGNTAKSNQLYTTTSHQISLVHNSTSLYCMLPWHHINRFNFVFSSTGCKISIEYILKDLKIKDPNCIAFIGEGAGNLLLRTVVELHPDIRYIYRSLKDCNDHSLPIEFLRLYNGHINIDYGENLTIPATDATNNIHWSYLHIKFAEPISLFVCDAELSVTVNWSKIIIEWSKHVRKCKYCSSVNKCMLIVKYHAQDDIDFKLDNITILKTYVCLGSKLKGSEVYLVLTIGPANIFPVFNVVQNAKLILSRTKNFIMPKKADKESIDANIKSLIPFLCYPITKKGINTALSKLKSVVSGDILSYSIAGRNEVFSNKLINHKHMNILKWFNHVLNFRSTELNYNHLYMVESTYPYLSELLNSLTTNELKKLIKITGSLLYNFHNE
T1 sequence (P03421 whole entry, further chain): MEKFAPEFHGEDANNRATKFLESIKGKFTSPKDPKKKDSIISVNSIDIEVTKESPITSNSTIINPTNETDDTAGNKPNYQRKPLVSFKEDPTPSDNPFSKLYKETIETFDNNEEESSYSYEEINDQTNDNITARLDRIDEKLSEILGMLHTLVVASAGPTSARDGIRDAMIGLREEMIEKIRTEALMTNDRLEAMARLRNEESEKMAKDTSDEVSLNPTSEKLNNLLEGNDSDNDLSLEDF
As to the kind of experiment: RSV RNP assay (inhibition of RSV RNP transcription). It counts as biochemical, RSV A2. The settings on record: crude RSV RNP complexes, 90 minute incubation at 30° C., total radiolabled transcripts reduced by 50%. Here is the method:
RSV ribonucleoprotein (RNP) complexes were prepared from a method modified from Mason et al (1). HEp-2 cells were plated at a density of 7.1×10^4 cells/cm^2 in MEM+10% fetal bovine serum (FBS) and allowed to attach overnight at 37° C. (5% CO2). Following attachment, the cells were infected with RSV A2 (MOI=5) in 35 mL MEM+2% FBS. At 20 hours post-infection, the media was replaced with MEM+2% FBS supplemented with 2 m/mL actinomycin D and returned to 37° C. for one hour. The cells were then washed once with PBS and treated with 35 mL of PBS+250 m/mL lyso-lecithin for one minute, after which all liquid was aspirated. The cells were harvested by scrapping them into 1.2 mL of buffer A [50 mM TRIS acetate (pH 8.0), 100 mM potassium acetate, 1 mM DTT and 2 m/mL actinomycin D] and lysed by repeated passage through an 18 gauge needle (10 times). The cell lysate was placed in ice for 10 minutes and then centrifuged at 2400 g for 10 minutes at 4° C. The supernatant (S1) was removed and the pellet (P1) was disrupted in 600 uL of Buffer B [10 mM TRIS acetate (pH 8.0), 10 mM potassium acetate and 1.5 mM MgCl2] supplemented with 1% Triton X-100 by repeated passage through an 18 gauge needle (10 times). The resuspended pellet was placed in ice for 10 minutes and then centrifuged at 2400 g for 10 minutes at 4° C. The supernatant (S2) was removed and the pellet (P2) was disrupted in 600 uL of Buffer B supplemented with 0.5% deoxycholate and 0.1% Tween 40. The resuspended pellet was placed in ice for 10 minutes and then centrifuged at 2400 g for 10 minutes at 4° C. The supernatant (S3) fraction, containing the enriched RSV RNP complexes, was collected and the protein concentration determined by UV absorbance at 280 nm. Aliquoted RSV RNP S3 fractions were stored at −80° C.
Transcription reactions contained 25 μg of crude RSV RNP complexes in 30 μL of reaction buffer [50 mM TRIS-acetate (pH 8.0), 120 mM potassium acetate, 5% glycerol, 4.5 mM MgCl2, 3 mM DTT, 2 mM ethyleneglycol-bis(2-aminoethylether)-tetraacetic acid (EGTA), 50 μg/mL BSA, 2.5 U RNasin (Promega), ATP, GTP, UTP, CTP and 1.5 uCi [α-^32P] NTP (3000 Ci/mmol)]. The radiolabled nucleotide used in the transcription assay was selected to match the nucleotide analog being evaluated for inhibition of RSV RNP transcription. Cold, competitive NTP was added at a final concentration of one-half its Km (ATP=20 μM, GTP=12.5 μM, UTP=6 μM and CTP=2 μM). The three remaining nucleotides were added at a final concentration of 100 μM.
To determine whether nucleotide analogs inhibited RSV RNP transcription, compounds were added using a 6 step serial dilution in 5-fold increments. Following a 90 minute incubation at 30° C., the RNP reactions were stopped with 350 μL of Qiagen RLT lysis buffer and the RNA was purified using a Qiagen RNeasy 96 kit. […]

[4] abbreviates: 96 h, RSV A2-induced cytopathic effect in HEp-2 cells, 4 days, Cell TiterGlo, read-out: EC50.

A word on the EC50: it is the concentration at which the effect is half-maximal. As a reminder, the CC50 is the concentration at which the toxic effect on the cells reaches its halfway point. Read a high CC50 as better tolerance by the cells. For orientation: IC50 means the concentration needed to halve the response being measured.

The structures appear in SMILES notation. Where two headings read alike, the source gives them in different places.

`[N-]=[N+]=N[C@]1(CO)O[C@@H](c2csc3c(N)ncnc23)[C@H](F)[C@@H]1O` [Example 1, (2R,3R,4R,5S)-5-(4-aminothieno[3,2-d]pyrimidin-7-yl)-2-azido-4-fluoro-2-(hydroxymethyl)-tetrahydrofuran-3-ol]: in the series with RSV strain A2 (setting [4]), the EC50 was 0.208 µM. Also, the CC50 at 4 days in series [1] was greater than 100 µM. Also, the CC50 at 5 days in series [2] is 59 µM.

As for `N#C[C@]1(CO)O[C@@H](c2csc3c(N)ncnc23)[C@H](O)[C@@H]1O` [Example 3, (2R,3S,4R,5S)-5-(4-aminothieno[3,2-d]pyrimidin-7-yl)-3,4-dihydroxy-2-(hydroxymelthyl)tetrahydrofuran-2-carbonitrile], the concentration giving a half-maximal response (EC50) in the series with RSV strain A2 (setting [4]) was found to be 5 µM. In series [1], this compound had a CC50 at 4 days greater than 50 µM. The CC50 at 5 days in series [2] is greater than 57 µM.

Regarding `[N-]=[N+]=N[C@]1(CO)O[C@@H](c2csc3c(N)ncnc23)[C@H](Cl)[C@@H]1O` [Example 4, (2R,3R,4R,5S)-5-(4-Aminothieno[3,2-d]pyrimidin-7-yl)-2-azido-4-chloro-2-(hydroxymethyl)tetrahydrofuran-3-ol], the EC50 in the series with RSV strain A2 (setting [4]) was greater than 98 µM. Moreover, the CC50 at 4 days in series [1] is greater than 93 µM. The compound also registered a CC50 at 5 days in series [2] of 93 µM.

For `CCOC(=O)[C@H](C)NP(=O)(OC[C@@]1(N=[N+]=[N-])O[C@@H](c2csc3c(N)ncnc23)[C@H](F)[C@@H]1O)Oc1ccccc1` (stereo partly drawn) [Example PD1, (2S)-ethyl 2-(((((2R,3R,4R,5S)-5-(4-aminothieno[3,2-d]pyrimidin-7-yl)-2-azido-4-fluoro-3-hydroxytetrahydrofuran-2-yl)methoxy)(phenoxy)phosphoryl)amino)propanoate], the EC50 in the series on RSV strain A2 (HEp-2, 96 h) amounted to 0.556 µM. The same compound yielded a CC50 at 4 days in series [1] greater than 50 µM. The same compound displayed a CC50 at 5 days in series [2] of 10.4 µM.

The compound `[N-]=[N+]=N[C@]1(COP(=O)(O)OP(=O)(O)OP(=O)(O)O)O[C@@H](c2csc3c(N)ncnc23)[C@H](F)[C@@H]1O` [Example TP1, ((2R,3R,4R,5S)-5-(4-aminothieno[3,2-d]pyrimidin-7-yl)-2-azido-4-fluoro-3-hydroxytetrahydrofuran-2-yl)methyl tetrahydrogen triphosphate] registered an IC50 in series [3] of 0.076 µM.

Turning to `N#C[C@]1(COP(=O)(O)OP(=O)(O)OP(=O)(O)O)O[C@@H](c2csc3c(N)ncnc23)[C@H](F)[C@@H]1O` [Example TP2, ((2R,3R,4R,5S)-5-(4-aminothieno[3,2-d]pyrimidin-7-yl)-2-cyano-4-fluoro-3-hydroxytetrahydrofuran-2-yl)methyl tetrahydrogen triphosphate], in series [3], the IC50 turned out to be 0.042 µM.

On to `N#C[C@]1(COP(=O)(O)OP(=O)(O)OP(=O)(O)O)O[C@@H](c2csc3c(N)ncnc23)[C@H](O)[C@@H]1O` [Example TP3, ((2R,3S,4R,5S)-5-(4-aminothieno[3,2-d]pyrimidin-7-yl)-2-cyano-3,4-dihydroxytetrahydrofuran-2-yl)methyl tetrahydrogen triphosphate], for which the IC50 in series [3] turned out to be 0.036 µM.

Turning to `[N-]=[N+]=N[C@]1(COP(=O)(O)OP(=O)(O)OP(=O)(O)O)O[C@@H](c2csc3c(N)ncnc23)[C@H](Cl)[C@@H]1O` [Example TP4, ((2R,3R,4R,5S)-5-(4-aminothieno[3,2-d]pyrimidin-7-yl)-2-azido-4-chloro-3-hydroxytetrahydrofuran-2-yl)methyl tetrahydrogen triphosphate], the IC50 in series [3] turned out to be 0.2 µM.
